This is an account of results in article PMC3348135, “Identification of New Agonists and Antagonists of the Insect Odorant Receptor Co-Receptor Subunit” (PLoS ONE, 2012).

A short description of series [1]: Solubility in recording solution (observation). It counts as physicochemical. The note with it: aqueous recording solution, higher concentrations (OLC2: above 100 µM). The method, then: (§1) Odorant and Orco ligand induced currents were recorded under two-electrode voltage clamp in Xenopus laevis oocytes expressing ORs, using an automated parallel electrophysiology system (OpusExpress 6000A; Molecular Devices). Oocytes were perfused with ND96 (in mM: 96 NaCl, 2 KCl, 1 CaCl2, 1 MgCl2, 5 HEPES, pH 7.5). Odorant stock solutions (0.5 or 1 M) and Orco ligand stock solutions (100 mM) were prepared in DMSO and diluted in ND96. Unless otherwise noted, applications were for 60 sec at a flow rate of 1.0 ml/min, with extensive washing in ND96 (9 or 20 min at 4.6 ml/min) between applications. Micropipettes were filled with 3 M KCl and had resistances of 0.2−2.0 MΩ. The holding potential was −70 mV. Current responses, filtered (4-pole, Bessel, low pass) at 20 Hz (−3 db) and sampled at 100 Hz, were captured and stored using OpusXpress 1.1 software (Molecular Devices).

Another series concerns Onub\Orco + Onub\Or1. The experiment in a line: Agonist activation of Onub\Orco + Onub\Or1 in Xenopus oocytes, two-electrode voltage clamp. The series is classed as cell-based, Ostrinia nubilalis. The note with it: 100 µM compound; mean ± SEM, n=3-8.
In another series the target is T1, Dmel\Orco (Drosophila melanogaster, UniProt Q9VNB5).
T1 construct: expressed in transfected cells; host or cells: Xenopus laevis oocytes (cRNA injection, pGEMHE)
T1 sequence (Q9VNB5 1-486): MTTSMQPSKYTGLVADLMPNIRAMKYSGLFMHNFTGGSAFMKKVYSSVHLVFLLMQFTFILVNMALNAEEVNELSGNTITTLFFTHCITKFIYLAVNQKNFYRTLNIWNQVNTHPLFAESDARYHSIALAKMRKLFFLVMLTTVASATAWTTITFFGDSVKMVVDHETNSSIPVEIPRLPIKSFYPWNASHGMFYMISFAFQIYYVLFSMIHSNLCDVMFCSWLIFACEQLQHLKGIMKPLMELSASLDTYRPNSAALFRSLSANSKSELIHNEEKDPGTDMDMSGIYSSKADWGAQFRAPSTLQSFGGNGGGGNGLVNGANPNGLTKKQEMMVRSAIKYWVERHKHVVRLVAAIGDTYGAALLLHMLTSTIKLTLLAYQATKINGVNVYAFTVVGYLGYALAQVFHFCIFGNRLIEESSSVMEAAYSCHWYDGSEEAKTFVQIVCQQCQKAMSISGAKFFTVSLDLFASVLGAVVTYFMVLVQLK
In words: Agonist activation of homomeric Dmel\Orco in Xenopus oocytes, two-electrode voltage clamp. It counts as cell-based. The settings on record: read-out: Response amplitude as percentage of response to 100 µM OLC3, Dmel\Orco. The method, then: (§2) Oocytes were surgically removed from mature Xenopus laevis frogs. Follicle cells were removed by treatment with Collagenase B (Boehringer Mannhem) for 2 hours at room temperature. Capped cRNA encoding each DmOR subunit was generated using mMessage mMachine kits (Ambion). For heteromeric ORs, 25 ng of cRNA encoding each OR subunit was injected into Stage V-VI Xenopus oocytes. For expression of Orco alone, 50 ng of cRNA was injected. Oocytes were incubated at 18°C in Barth’s saline (in mM: 88 NaCl, 1 KCl, 2.4 NaHCO3, 0.3 CaNO3, 0.41 CaCl2, 0.82 MgSO4, 15 HEPES, pH 7.6, and 150 µg/ml ceftazidime) for 2–5 days prior to electrophysiological recording.
as §1
(§3) Initial analysis of electrophysiological data was done using Clampfit 9.1 software (Molecular Devices). Curve fitting and statistical analyses were done using Prism 5 (Graphpad). Concentration-response data were fit to the equation: I = Imax/(1+(EC50/X)^n) where I represents the current response at a given concentration of odorant, X; Imax is the maximal response; EC50 is the concentration of agonist yielding a half maximal response; n is the apparent Hill coefficient. Concentration-inhibition data were fit to the equation: I = Imax/(1+(X/IC50)^n) where I represents the current response at a given concentration of inhibitor, X; Imax is the maximal response in the absence of inhibitor; IC50 is the concentration of inhibitor present that still allows a half maximal response from odorant; n is the apparent Hill coefficient. Statistical significance was assessed using a two-tailed unpaired t test, an F test, or a one-way analysis of variance followed by the Bonferroni’s post-test, as appropriate.
(In general: In two-electrode clamp one electrode senses voltage and the other passes current.)

A further series addresses T2, Dmel\Orco + Dmel\Or35a (Drosophila melanogaster, UniProt Q9VNB5).
T2 construct: expressed in transfected cells; host or cells: Xenopus laevis oocytes (cRNA injection, pGEMHE)
T2 sequence (Q9VNB5 1-486): T1 sequence (Q9VNB5 1-486)
T2 sequence (Q9V3Q2 1-409 partner): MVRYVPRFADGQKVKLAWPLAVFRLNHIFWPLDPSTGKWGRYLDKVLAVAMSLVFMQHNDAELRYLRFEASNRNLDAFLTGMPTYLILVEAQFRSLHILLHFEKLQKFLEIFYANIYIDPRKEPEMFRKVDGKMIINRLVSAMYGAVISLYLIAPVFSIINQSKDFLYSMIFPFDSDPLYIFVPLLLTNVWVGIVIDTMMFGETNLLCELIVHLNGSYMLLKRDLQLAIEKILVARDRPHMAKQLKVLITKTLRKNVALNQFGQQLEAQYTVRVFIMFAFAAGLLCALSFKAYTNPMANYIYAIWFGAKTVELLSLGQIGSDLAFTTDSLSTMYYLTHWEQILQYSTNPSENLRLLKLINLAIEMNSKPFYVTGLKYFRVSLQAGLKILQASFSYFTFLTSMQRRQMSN
In words: Agonist activation of Dmel\Orco + Dmel\Or35a in Xenopus oocytes, two-electrode voltage clamp. The series is classed as cell-based. The settings on record: read-out: Response amplitude as percentage of response to 100 µM OLC3, Dmel\Orco + Dmel\Or35a. As for the experimental part: as §2, §1, §3

For `CCc1ccc(NC(=O)CSc2nnc(-c3ccccn3)n2CC)cc1` [OLC2], the Solubility result in series [1] was “poor solubility”. Besides, the “Response amplitude as percentage of response to 100 µM OLC3, Onub\Orco + Onub\Or1” value with Onub\Orco + Onub\Or1 was determined as 9 ± 2%. Besides, the results for the Emax at 100 µM at Dmel\Orco and at Dmel\Orco + Dmel\Or35a were 0% and 2 ± 1%, respectively.

With `CCCCc1ccc(NC(=O)CSc2nnc(-c3ccccn3)n2CC)cc1` [OLC15], the Emax at 100 µM at Dmel\Orco and on Dmel\Orco + Dmel\Or35a was 0% each time.
